# System: Echinochloa crus-galli
# Test: Test Example 1: herbicidal effect test by treatment of rice paddy soil (immediately after seeding)
# Format: in vivo
# Settings: 120 g/10a active ingredient, 14 days after treatment, dry weight vs untreated area
# Summary of the method: (§1)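 Paddy soil in pots with compound fertilizer, puddled; 30 seeds per species sown at 0–1 cm, flooded ~3 cm, greenhouse. Water-diluted emulsions dropped onto water immediately after seeding at 120 g active ingredient per 10 ares, duplicate. Herbicidal rate (%) from plant dry weight versus untreated, 14 days after treatment.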
row,SMILES,Herbicidal rate (%) Echinochloa crus-galli
1,Cc1c(Cc2ccccc2N(S(=O)(=O)C(F)(F)F)S(=O)(=O)C(F)(F)F)c(=O)on1CC1(C)CO1 (centres unmarked) [Compound 1-1051],80%
2,Cc1c(Cc2ccccc2N(S(=O)(=O)C(F)(F)F)S(=O)(=O)C(F)(F)F)c(=O)on1S(=O)(=O)C(C)C [Compound 1-1064],90%
3,Cc1c(Cc2ccccc2N(S(=O)(=O)C(F)(F)F)S(=O)(=O)C(F)(F)F)c(=O)on1CCOCc1ccccc1 [Compound 1-1059],100%

# System: Scirpus juncoides
# Test: as above
# Format: in vivo
# Settings: 120 g/10a active ingredient, 14 days after treatment, dry weight vs untreated area
# Summary of the method: as §1
row,SMILES,Herbicidal rate (%) Scirpus juncoides
1,Cc1c(Cc2ccccc2N(S(=O)(=O)C(F)(F)F)S(=O)(=O)C(F)(F)F)c(=O)on1CC1(C)CO1 (centres unmarked) [Compound 1-1051],100%
2,Cc1c(Cc2ccccc2N(S(=O)(=O)C(F)(F)F)S(=O)(=O)C(F)(F)F)c(=O)on1S(=O)(=O)C(C)C [Compound 1-1064],90%
3,Cc1c(Cc2ccccc2N(S(=O)(=O)C(F)(F)F)S(=O)(=O)C(F)(F)F)c(=O)on1CCOCc1ccccc1 [Compound 1-1059],80%

# System: broad leaf weeds (Lindernia pyxidaria and Monochoria vaginalis)
# Test: as above
# Format: in vivo
# Settings: Lindernia pyxidaria, 120 g/10a active ingredient, 14 days after treatment, dry weight vs untreated area
# Summary of the method: as §1
row,SMILES,Herbicidal rate (%) Lindernia pyxidaria
1,Cc1c(Cc2ccccc2N(S(=O)(=O)C(F)(F)F)S(=O)(=O)C(F)(F)F)c(=O)on1CC1(C)CO1 (centres unmarked) [Compound 1-1051],60%
2,Cc1c(Cc2ccccc2N(S(=O)(=O)C(F)(F)F)S(=O)(=O)C(F)(F)F)c(=O)on1S(=O)(=O)C(C)C [Compound 1-1064],90%
3,Cc1c(Cc2ccccc2N(S(=O)(=O)C(F)(F)F)S(=O)(=O)C(F)(F)F)c(=O)on1CCOCc1ccccc1 [Compound 1-1059],80%

# Same assay, conditions: Monochoria vaginalis, 120 g/10a active ingredient, 14 days after treatment, dry weight vs untreated area
row,SMILES,Herbicidal rate (%) Monochoria vaginalis
1,Cc1c(Cc2ccccc2N(S(=O)(=O)C(F)(F)F)S(=O)(=O)C(F)(F)F)c(=O)on1CC1(C)CO1 (centres unmarked) [Compound 1-1051],80%
2,Cc1c(Cc2ccccc2N(S(=O)(=O)C(F)(F)F)S(=O)(=O)C(F)(F)F)c(=O)on1S(=O)(=O)C(C)C [Compound 1-1064],90%
3,Cc1c(Cc2ccccc2N(S(=O)(=O)C(F)(F)F)S(=O)(=O)C(F)(F)F)c(=O)on1CCOCc1ccccc1 [Compound 1-1059],90%

# System: Echinochloa crus-galli
# Test: Test Example 2: herbicidal effect test by treatment during growing period in paddy rice cultivation (seven days after seeding)
# Format: in vivo
# Settings: 120 g/10a active ingredient, assessed 14 days after treatment, dry weight vs untreated area
# Summary of the method: (§2)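 Herbicidal rate = (1 − treated/untreated mean dry weight) × 100, scored 14 days after application, two replicates per rate. Treatment: diluted emulsion dropped onto paddy water seven days after sowing, 120 g active ingredient per 10 ares, in a glass greenhouse.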
row,SMILES,Herbicidal rate (%) Echinochloa crus-galli
1,Cc1c(Cc2ccccc2N(S(=O)(=O)C(F)(F)F)S(=O)(=O)C(F)(F)F)c(=O)on1CC1(C)CO1 (centres unmarked) [Compound 1-1051],90%

# Same assay, conditions: 120 g/10a, rated 14 days after treatment, paddy soil pots
row,SMILES,"herbicidal rate, Echinochloa crus-galli"
1,Cc1c(Cc2ccccc2N(S(=O)(=O)C(F)(F)F)S(=O)(=O)C(F)(F)F)c(=O)on1S(=O)(=O)C(C)C [Compound 1-1064],70%
2,Cc1c(Cc2ccccc2N(S(=O)(=O)C(F)(F)F)S(=O)(=O)C(F)(F)F)c(=O)on1CCOCc1ccccc1 [Compound 1-1059],90%

# System: Scirpus juncoides
# Test: as above
# Format: in vivo
# Settings: 120 g/10a active ingredient, assessed 14 days after treatment, dry weight vs untreated area
# Summary of the method: as §2
row,SMILES,Herbicidal rate (%) Scirpus juncoides
1,Cc1c(Cc2ccccc2N(S(=O)(=O)C(F)(F)F)S(=O)(=O)C(F)(F)F)c(=O)on1CC1(C)CO1 (centres unmarked) [Compound 1-1051],90%

# Same assay, conditions: 120 g/10a, rated 14 days after treatment, paddy soil pots
row,SMILES,"herbicidal rate, Scirpus juncoides"
1,Cc1c(Cc2ccccc2N(S(=O)(=O)C(F)(F)F)S(=O)(=O)C(F)(F)F)c(=O)on1S(=O)(=O)C(C)C [Compound 1-1064],90%
2,Cc1c(Cc2ccccc2N(S(=O)(=O)C(F)(F)F)S(=O)(=O)C(F)(F)F)c(=O)on1CCOCc1ccccc1 [Compound 1-1059],70%

# System: broad leaf weeds (Lindernia pyxidaria and Monochoria vaginalis)
# Test: as above
# Format: in vivo
# Settings: Lindernia pyxidaria, 120 g/10a active ingredient, assessed 14 days after treatment, dry weight vs untreated area
# Summary of the method: as §2
row,SMILES,Herbicidal rate (%) Lindernia pyxidaria
1,Cc1c(Cc2ccccc2N(S(=O)(=O)C(F)(F)F)S(=O)(=O)C(F)(F)F)c(=O)on1CC1(C)CO1 (centres unmarked) [Compound 1-1051],40%

# Same assay, conditions: Lindernia pyxidaria, 120 g/10a, rated 14 days after treatment, paddy soil pots
row,SMILES,"herbicidal rate, Lindernia pyxidaria"
1,Cc1c(Cc2ccccc2N(S(=O)(=O)C(F)(F)F)S(=O)(=O)C(F)(F)F)c(=O)on1S(=O)(=O)C(C)C [Compound 1-1064],50%
2,Cc1c(Cc2ccccc2N(S(=O)(=O)C(F)(F)F)S(=O)(=O)C(F)(F)F)c(=O)on1CCOCc1ccccc1 [Compound 1-1059],40%

# Same assay, conditions: Monochoria vaginalis, 120 g/10a active ingredient, assessed 14 days after treatment, dry weight vs untreated area
row,SMILES,Herbicidal rate (%) Monochoria vaginalis
1,Cc1c(Cc2ccccc2N(S(=O)(=O)C(F)(F)F)S(=O)(=O)C(F)(F)F)c(=O)on1CC1(C)CO1 (centres unmarked) [Compound 1-1051],80%

# Same assay, conditions: Monochoria vaginalis, 120 g/10a, rated 14 days after treatment, paddy soil pots
row,SMILES,"herbicidal rate, Monochoria vaginalis"
1,Cc1c(Cc2ccccc2N(S(=O)(=O)C(F)(F)F)S(=O)(=O)C(F)(F)F)c(=O)on1S(=O)(=O)C(C)C [Compound 1-1064],80%
2,Cc1c(Cc2ccccc2N(S(=O)(=O)C(F)(F)F)S(=O)(=O)C(F)(F)F)c(=O)on1CCOCc1ccccc1 [Compound 1-1059],70%

# System: Amaranthus viridis
# Test: Test Example 3: herbicidal effect test by treatment of dry field farming soil (one day after seeding)
# Format: in vivo
# Settings: 120 g/10a active ingredient, evaluated 14 days after treatment
# Experimental: (§3) This test was conducted in a double system per one agent solution concentration area, and the herbicidal rates (%) were determined by the following equation (Math. 1) on 14 days after the treatment with the agents. Herbicidal Rate (%)={1-(Average Dry Weight (g) of Plant of Treated Area)/(Average Dry Weight (g) of Plant of Untreated Area)}×100 [Math. 1]
# (§4) Herbicidal Effect Test by Treatment of Dry Field Farming Soil
# (§5) Pots with a size of 36 cm^2 were filled with a dry field farming soil (alluvium). The soil of the top layer of 1 cm and seeds of weeds, namely southern crabgrass, Echinochloa crus-galli, Chenopodium album and Amaranthus viridis, 20 seeds each, were evenly mixed, and the top layer was gently pressed. Emulsions prepared using the compounds in Table 5 below according to Formulation Example 5 were diluted with water one day after seeding, and the water-diluted agent solutions were sprayed to the soil surfaces at a ratio of 100 liters per 10 ares. The converted amount of the applied active ingredient corresponded to 120 g per 10 ares. The herbicidal effects were evaluated by the same standard as that in Test Example 1 on 14 days after the treatment with the agents. […] The compound numbers in Table 5 are the same as those in Table 1 and Table 2 above.
row,SMILES,"herbicidal rate, Amaranthus viridis"
1,Cc1c(Cc2ccccc2N(S(=O)(=O)C(F)(F)F)S(=O)(=O)C(F)(F)F)c(=O)on1CC1(C)CO1 (centres unmarked) [Compound 1-1051],80%
2,Cc1c(Cc2ccccc2N(S(=O)(=O)C(F)(F)F)S(=O)(=O)C(F)(F)F)c(=O)on1S(=O)(=O)C(C)C [Compound 1-1064],80%

# System: Chenopodium album
# Test: as above
# Format: in vivo
# Settings: 120 g/10a active ingredient, evaluated 14 days after treatment
# Experimental: as §3, §4, §5
row,SMILES,"herbicidal rate, Chenopodium album"
1,Cc1c(Cc2ccccc2N(S(=O)(=O)C(F)(F)F)S(=O)(=O)C(F)(F)F)c(=O)on1CC1(C)CO1 (centres unmarked) [Compound 1-1051],60%
2,Cc1c(Cc2ccccc2N(S(=O)(=O)C(F)(F)F)S(=O)(=O)C(F)(F)F)c(=O)on1S(=O)(=O)C(C)C [Compound 1-1064],80%

# System: Echinochloa crus-galli
# Test: as above
# Format: in vivo
# Settings: 120 g/10a active ingredient, evaluated 14 days after treatment
# Experimental: as §3, §4, §5
row,SMILES,"herbicidal rate, Echinochloa crus-galli"
1,Cc1c(Cc2ccccc2N(S(=O)(=O)C(F)(F)F)S(=O)(=O)C(F)(F)F)c(=O)on1CC1(C)CO1 (centres unmarked) [Compound 1-1051],80%
2,Cc1c(Cc2ccccc2N(S(=O)(=O)C(F)(F)F)S(=O)(=O)C(F)(F)F)c(=O)on1S(=O)(=O)C(C)C [Compound 1-1064],100%

# System: southern crabgrass
# Test: as above
# Format: in vivo
# Settings: 120 g/10a active ingredient, evaluated 14 days after treatment
# Experimental: as §3, §4, §5
row,SMILES,"herbicidal rate, southern crabgrass"
1,Cc1c(Cc2ccccc2N(S(=O)(=O)C(F)(F)F)S(=O)(=O)C(F)(F)F)c(=O)on1CC1(C)CO1 (centres unmarked) [Compound 1-1051],80%
2,Cc1c(Cc2ccccc2N(S(=O)(=O)C(F)(F)F)S(=O)(=O)C(F)(F)F)c(=O)on1S(=O)(=O)C(C)C [Compound 1-1064],60%

# Source: patent US11109593B2, “Isoxazolin-5-one derivative and herbicide containing same as active ingredient” (HOKKO CHEMICAL INDUSTRY CO., LTD., priority 2017, dated 2021)
